Columns and labels:
[1] = test system: Epstein-Barr virus-early antigen (EBV-EA) activation in Raji cells by TPA; experiment: Inhibitory effects on induction of EBV-EA activation by TPA in Raji cells; assay type: cell-based
Text: (§1) We finally carried out in vitro functional analysis of the purified valerianol against tumor promoter activity, since there were no reports on its physiological functions. As such a screening study for anti-tumor promoters, valerianol and other several sesquiterpenes, β-eudesmol, elemol, α-selinene, and γ-amorphene, were examined for their inhibitory effects on induction of Epstein-Barr virus-early antigen (EBV-EA) activation in Raji cells by 12-O-tetradecanoylphorbol-13-acetate (TPA)[42].
(§2) This assay was carried out by the method described.

[2] = test system: Ralstonia solanacearum; details: extracted from Chinese agarwood; cited from earlier work
[3] = Viability of Raji cells in the EBV-EA activation assay; assay type: cell-based; details: human, Raji cells; concentration 1000 mol ratio to TPA (32 pmol/ml); value in parentheses; read-out: viability percentage of Raji cells
Text: as §1, §2

[4] = test system: Staphylococcus aureus; parameters: method as in PMID 26927047; details: extracted from Chinese agarwood; cited from earlier work
[5] = test system: Raji cells; experiment: Viability of Raji cells in the EBV-EA activation assay; assay type: cell-based; details: concentration 1000 mol ratio to TPA (32 pmol/ml); value in parentheses
Text: as §1, §2

[6] = concentration 10 mol ratio to TPA (32 pmol/ml)
[7] = concentration 100 mol ratio to TPA (32 pmol/ml)
[8] = concentration 500 mol ratio to TPA (32 pmol/ml)
[9] = concentration 1000 mol ratio to TPA (32 pmol/ml)

Compound	inhibitory activity on induction of EBV-EA activation by TPA (in words) [1]	EBV-EA activation, percentage relative to the positive control value (100%) [1, 6] [%]	EBV-EA activation, percentage relative to the positive control value (100%) [1, 7] [%]	EBV-EA activation, percentage relative to the positive control value (100%) [1, 8] [%]	EBV-EA activation, percentage relative to the positive control value (100%) [1, 9] [%]	antibacterial activity against Ralstonia solanacearum (in words) [2]	viability at 32 nmol/ml [3] [%]	antibacterial activity against Staphylococcus aureus (in words) [4]	viability percentage of Raji cells [5] [%]
C[C@@H]1CCC=C2CC[C@@H](C(C)(C)O)C[C@]21C (relative stereo) [valerianol]	strongest inhibitory activity among the examined sesquiterpenes	95.6 ± 0.6	70.0 ± 2.5	46.5 ± 1.5	2.1	exhibited antibacterial activities	60	exhibited antibacterial activities	–
C=CC1(C)CCC(C(C)(C)O)CC1C(=C)C (stereo not drawn) [elemol]	–	100 ± 0.5	73.0 ± 2.4	52.6 ± 1.3	5.8	–	70	–	–
C=C(C)[C@@H]1CC[C@@]2(C)CCC=C(C)[C@@H]2C1 [α-selinene]	–	–	74.4 ± 2.7	54.2 ± 1.5	7.3	–	–	–	60
C=C1CCC[C@]2(C)CC[C@@H](C(C)(C)O)C[C@@H]12 [β-eudesmol]	–	97.0 ± 0.5	71.1 ± 2.2	50.4 ± 1.6	3.6	–	60	–	–
C=C1CC[C@@H](C(C)C)[C@H]2C=C(C)CC[C@@H]12 [γ-amorphene]	–	100 ± 0.4	76.1 ± 2.5	55.6 ± 1.7	8.1	–	–	–	60
